Assay: recombinant UMI read abundance after kanamycin selection (control-corrected) (log10(CPM+1)); higher = more efficient recombination; extreme values may be limits of the assay; sequences stand for … in AGTGCAGAGAAAATCGGCCAGTTTTCTCTGCCTGCAGTCCGCATGCCGTGGGACCCCTTGGGTTCTAACCTGTTGCCTAGATTTATGCAGCGGACTGCCTTTCTCCCAAAGTGATAAACCGG…AGGTTGGTTTCACT; site = the 11-nt donor
Summary of the method: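 Values, expressed as log10(CPM+1), derive from recombinant UMI counts converted to CPM, averaged across replicates and scaled by control-derived factors. Plating was with IPTG (0.07 mM) plus kanamycin or unselected, two replicates each. The screen pooled donor and donor-binding-loop pairs for the IS621 bridge recombinase in Escherichia coli.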
With “CAGTCGACATGGACCGGTTTTCCCGGTAATCCGTATTTGGG (site CAGTCGACTCC)” the “recombinant UMI read abundance (log10)” value was 0.297.
In the case of “CAGTCGACATGGACCGGTTTTCCCGGTAATCCGTATTTGGG (site CAGTCGACTCG)”, the “recombinant UMI read abundance (log10)” value is reported as 0.
With “CAGTCGACATGGACCGGTTTTCCCGGTAATCCGTATTTGGG (site CAGTCGACTCT)” the “recombinant UMI read abundance (log10)” value was 0.314.
For “CAGTCGACATGGACCGGTTTTCCCGGTAATCCGTATTTGGG (site CAGTCGACTGC)”, the “recombinant UMI read abundance (log10)” value was 0.
In the case of “CAGTCGACATGGACCGGTTTTCCCGGTAATCCGTATTTGGG (site CAGTCGACTTC)”, the “recombinant UMI read abundance (log10)” value is reported as 0.00419.
With “CAGTCGACATGGACCGGTTTTCCCGGTAATCCGTATTTGGG (site CAGTCGCCTCC)” the “recombinant UMI read abundance (log10)” value was 0.0239.
For “CAGTCGACATGGACCGGTTTTCCCGGTAATCCGTATTTGGG (site CAGTCGGCTCC)”, the “recombinant UMI read abundance (log10)” value was 0.0315.
In the case of “CAGTCGACATGGACCGGTTTTCCCGGTAATCCGTATTTGGG (site CAGTCGTCTCC)”, the “recombinant UMI read abundance (log10)” value is reported as 0.151.
In the case of “CAGTCGACATGGACCGGTTTTCCCGGTAATCCGTATTTGGG (site CAGTCTACTCC)”, the “recombinant UMI read abundance (log10)” value is reported as 0.0277.
For “CAGTCGACATGGACCGGTTTTCCCGGTAATCCGTATTTGGG (site CAGTGGACTCC)”, the “recombinant UMI read abundance (log10)” value was 0.0181.
In the case of “CAGTCGACATGGACCGGTTTTCCCGGTAATCCGTATTTGGG (site CAGTTGACTCC)”, the “recombinant UMI read abundance (log10)” value is reported as 0.0173.
In the case of “CAGTCGACATGGACCGGTTTTCCCGGTAATCCGTATTTGGG (site CATTCGACTCC)”, the “recombinant UMI read abundance (log10)” value is reported as 0.0119.
For “CAGTCGACATGGACCGGTTTTCCCGGTAATCCGTATTTGGG (site CCGTCGACTCC)”, the “recombinant UMI read abundance (log10)” value was 0.00307.
For “CAGTCGACATGGACCGGTTTTCCCGGTAATCCGTATTTGGG (site CGGTCGACTCC)”, the “recombinant UMI read abundance (log10)” value was 0.0115.
For “CAGTCGACATGGACCGGTTTTCCCGGTAATCCGTATTTGGG (site CTGTCGACTCC)”, the “recombinant UMI read abundance (log10)” value was 0.0261.
With “CAGTCGACATGGACCGGTTTTCCCGGTAATCCGTATTTGGG (site GAGTCGACTCC)” the “recombinant UMI read abundance (log10)” value was 0.0417.
For “CAGTCGACATGGACCGGTTTTCCCGGTAATCCGTATTTGGG (site TAGTCGACTCC)”, the “recombinant UMI read abundance (log10)” value was 0.01.
For “CAGTCTACATGGACCGGTTTTCCCGGTAATCCGTATTTGGG (site CAGTCAACTCC)”, the “recombinant UMI read abundance (log10)” value was 0.0237.
For “CAGTCTACATGGACCGGTTTTCCCGGTAATCCGTATTTGGG (site CAGTCCACTCC)”, the “recombinant UMI read abundance (log10)” value was 0.0106.
In the case of “CAGTCTACATGGACCGGTTTTCCCGGTAATCCGTATTTGGG (site CAGTCGACTCC)”, the “recombinant UMI read abundance (log10)” value is reported as 0.00653.
In the case of “CAGTCTACATGGACCGGTTTTCCCGGTAATCCGTATTTGGG (site CAGTCTACTCC)”, the “recombinant UMI read abundance (log10)” value is reported as 0.0109.
With “CAGTTATCATGGACCGGTTTTCCCGGTAATCCGTATTTGTG (site CAGTTATCTCA)” the “recombinant UMI read abundance (log10)” value was 3.18.
For “CAGTTGGCATGGACCGGTTTTCCCGGTAATCCGTATTTGTG (site CAGTTGGCTCA)”, the “recombinant UMI read abundance (log10)” value was 1.47.
In the case of “CATAACGCATGGACCGGTTTTCCCGGTAATCCGTATTTGGG (site CATAACGCTCC)”, the “recombinant UMI read abundance (log10)” value is reported as 0.802.
For “CATAACGCATGGACCGGTTTTCCCGGTAATCCGTATTTGTG (site TGAGGGCCTGC)”, the “recombinant UMI read abundance (log10)” value was 0.
With “CATAGCCCATGGACCGGTTTTCCCGGTAATCCGTATTTGCC (site CATAGCCCTGG)” the “recombinant UMI read abundance (log10)” value was 0.
For “CATAGGGCATGGACCGGTTTTCCCGGTAATCCGTATTTGTC (site CATAGGGCTGA)”, the “recombinant UMI read abundance (log10)” value was 2.5.
In the case of “CATATCCCATGGACCGGTTTTCCCGGTAATCCGTATTTGCG (site CATATCCCTCG)”, the “recombinant UMI read abundance (log10)” value is reported as 0.847.
With “CATATCTCATGGACCGGTTTTCCCGGTAATCCGTATTTGAC (site CATATCTCTGT)” the “recombinant UMI read abundance (log10)” value was 2.52.
With “CATATTCCATGGACCGGTTTTCCCGGTAATCCGTATTTGCT (site CATATTCCTAG)” the “recombinant UMI read abundance (log10)” value was 0.
With “CATCAGTCATGGACCGGTTTTCCCGGTAATCCGTATTTGAT (site CATCAGTCTAT)” the “recombinant UMI read abundance (log10)” value was 2.04.
With “CATCATGCATGGACCGGTTTTCCCGGTAATCCGTATTTGTT (site CATCATGCTAA)” the “recombinant UMI read abundance (log10)” value was 1.58.
For “CATCCGGCATGGACCGGTTTTCCCGGTAATCCGTATTTGTC (site CATCCGGCTGA)”, the “recombinant UMI read abundance (log10)” value was 0.293.
For “CATCGTTCATGGACCGGTTTTCCCGGTAATCCGTATTTGCA (site CATCGTTCTTG)”, the “recombinant UMI read abundance (log10)” value was 2.25.
With “CATCTCGCATGGACCGGTTTTCCCGGTAATCCGTATTTGCA (site CATCTCGCTTG)” the “recombinant UMI read abundance (log10)” value was 0.985.
With “CATCTGCCATGGACCGGTTTTCCCGGTAATCCGTATTTGCC (site CATCTGCCTGG)” the “recombinant UMI read abundance (log10)” value was 0.
In the case of “CATGCAGCATGGACCGGTTTTCCCGGTAATCCGTATTTGAG (site CATGCAGCTCT)”, the “recombinant UMI read abundance (log10)” value is reported as 1.51.
In the case of “CATGCCCCATGGACCGGTTTTCCCGGTAATCCGTATTTGGG (site CATGCCCCTCC)”, the “recombinant UMI read abundance (log10)” value is reported as 0.00831.
For “CATGGAACATGGACCGGTTTTCCCGGTAATCCGTATTTGTT (site CATGGAACTAA)”, the “recombinant UMI read abundance (log10)” value was 1.85.
For “CATGGAACATGGACCGGTTTTCCCGGTAATCCGTATTTGTT (site CCTGGAACTAA)”, the “recombinant UMI read abundance (log10)” value was 0.00373.
For “CATGGAACATGGACCGGTTTTCCCGGTAATCCGTATTTGTT (site CGTGGAACTAA)”, the “recombinant UMI read abundance (log10)” value was 0.0146.
For “CATGGAACATGGACCGGTTTTCCCGGTAATCCGTATTTGTT (site CTTGGAACTAA)”, the “recombinant UMI read abundance (log10)” value was 0.00575.
With “CATGGACCATGGACCGGTTTTCCCGGTAATCCGTATTTGGG (site CATGGACCTCC)” the “recombinant UMI read abundance (log10)” value was 0.0171.
In the case of “CATGTAACATGGACCGGTTTTCCCGGTAATCCGTATTTGGG (site CATGTAACTCC)”, the “recombinant UMI read abundance (log10)” value is reported as 0.209.
With “CATTAAACATGGACCGGTTTTCCCGGTAATCCGTATTTGCC (site CATTAAACTGG)” the “recombinant UMI read abundance (log10)” value was 1.51.
In the case of “CATTACCCATGGACCGGTTTTCCCGGTAATCCGTATTTGCC (site CATTACCCTGG)”, the “recombinant UMI read abundance (log10)” value is reported as 0.
In the case of “CATTAGACATGGACCGGTTTTCCCGGTAATCCGTATTTGAG (site CATTAGACTCT)”, the “recombinant UMI read abundance (log10)” value is reported as 1.89.
For “CATTAGACATGGACCGGTTTTCCCGGTAATCCGTATTTGAG (site CCTTAGACTCT)”, the “recombinant UMI read abundance (log10)” value was 0.769.
For “CATTAGACATGGACCGGTTTTCCCGGTAATCCGTATTTGAG (site CGTTAGACTCT)”, the “recombinant UMI read abundance (log10)” value was 0.492.
With “CATTAGACATGGACCGGTTTTCCCGGTAATCCGTATTTGAG (site CTTTAGACTCT)” the “recombinant UMI read abundance (log10)” value was 0.0129.
For “CATTAGGCATGGACCGGTTTTCCCGGTAATCCGTATTTGCT (site CATTAGGCTAG)”, the “recombinant UMI read abundance (log10)” value was 1.54.
For “CATTATGCATGGACCGGTTTTCCCGGTAATCCGTATTTGGA (site AATTATGCTTC)”, the “recombinant UMI read abundance (log10)” value was 0.0205.
With “CATTATGCATGGACCGGTTTTCCCGGTAATCCGTATTTGGA (site CATTATGCTTC)” the “recombinant UMI read abundance (log10)” value was 1.07.
With “CATTATGCATGGACCGGTTTTCCCGGTAATCCGTATTTGGA (site GATTATGCTTC)” the “recombinant UMI read abundance (log10)” value was 0.00887.
With “CATTATGCATGGACCGGTTTTCCCGGTAATCCGTATTTGGA (site TATTATGCTTC)” the “recombinant UMI read abundance (log10)” value was 0.208.
For “CATTCAGCATGGACCGGTTTTCCCGGTAATCCGTATTTGCA (site CATTCAGCTTG)”, the “recombinant UMI read abundance (log10)” value was 1.05.
In the case of “CATTCATCATGGACCGGTTTTCCCGGTAATCCGTATTTGCT (site CATTCATCTAG)”, the “recombinant UMI read abundance (log10)” value is reported as 1.4.
With “CATTCATCATGGACCGGTTTTCCCGGTAATCCGTATTTGCT (site CGATCATCTAG)” the “recombinant UMI read abundance (log10)” value was 0.633.
In the case of “CATTCGCCATGGACCGGTTTTCCCGGTAATCCGTATTTGAG (site CATTCGCCTCT)”, the “recombinant UMI read abundance (log10)” value is reported as 0.00436.
For “CATTCGGCATGGACCGGTTTTCCCGGTAATCCGTATTTGCA (site CATTCGGCTTG)”, the “recombinant UMI read abundance (log10)” value was 1.15.
For “CATTGAGCATGGACCGGTTTTCCCGGTAATCCGTATTTGTA (site CATTGAGCTTA)”, the “recombinant UMI read abundance (log10)” value was 2.06.
With “CATTGCCCATGGACCGGTTTTCCCGGTAATCCGTATTTGAC (site CATTGCCCTGT)” the “recombinant UMI read abundance (log10)” value was 0.844.
In the case of “CATTTGGCATGGACCGGTTTTCCCGGTAATCCGTATTTGCT (site CATTTGGCTAG)”, the “recombinant UMI read abundance (log10)” value is reported as 0.
For “CATTTGGCATGGACCGGTTTTCCCGGTAATCCGTATTTGCT (site CCTTTGGCTAG)”, the “recombinant UMI read abundance (log10)” value was 0.
For “CATTTGGCATGGACCGGTTTTCCCGGTAATCCGTATTTGCT (site CGTTTGGCTAG)”, the “recombinant UMI read abundance (log10)” value was 0.
With “CATTTGGCATGGACCGGTTTTCCCGGTAATCCGTATTTGCT (site CTTTTGGCTAG)” the “recombinant UMI read abundance (log10)” value was 0.00821.
With “CATTTGGCATGGACCGGTTTTCCCGGTAATCCGTATTTGGA (site CAATTGGCTTC)” the “recombinant UMI read abundance (log10)” value was 0.313.
In the case of “CATTTGGCATGGACCGGTTTTCCCGGTAATCCGTATTTGGA (site CACTTGGCTTC)”, the “recombinant UMI read abundance (log10)” value is reported as 0.438.
With “CATTTGGCATGGACCGGTTTTCCCGGTAATCCGTATTTGGA (site CAGTTGGCTTC)” the “recombinant UMI read abundance (log10)” value was 0.466.
In the case of “CATTTGGCATGGACCGGTTTTCCCGGTAATCCGTATTTGGA (site CATTTGGCTTC)”, the “recombinant UMI read abundance (log10)” value is reported as 0.328.
With “CCAAAAGCATGGACCGGTTTTCCCGGTAATCCGTATTTGAT (site CCAAAAGCTAT)” the “recombinant UMI read abundance (log10)” value was 1.34.
For “CCAAAAGCATGGACCGGTTTTCCCGGTAATCCGTATTTGAT (site CCCAAAGCTAT)”, the “recombinant UMI read abundance (log10)” value was 0.
For “CCAAAAGCATGGACCGGTTTTCCCGGTAATCCGTATTTGAT (site CCGAAAGCTAT)”, the “recombinant UMI read abundance (log10)” value was 0.
For “CCAAAAGCATGGACCGGTTTTCCCGGTAATCCGTATTTGAT (site CCTAAAGCTAT)”, the “recombinant UMI read abundance (log10)” value was 0.
For “CCAAAGACATGGACCGGTTTTCCCGGTAATCCGTATTTGCA (site CCAAAGACTTG)”, the “recombinant UMI read abundance (log10)” value was 2.26.

From the supplement of paper PMC11208160
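Further: IS621 bridge recombinase in Escherichia coli cells against a fixed T5 target plasmid.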
